Four compounds from paper PMC3177827 (PLoS ONE, 2011) can be followed below.

Where a SMILES comes first, the peptide text is derived from it. The star is where a group is joined. pNA = O=[N+]([O-])c1ccc(N*)cc1; Cbz = O=C(OCc1ccccc1)*

One data set concerns pepsin. Briefly: Degradation of 33-mer and 26-mer gliadin peptides by pepsin. Format: in vitro ADME. Conditions: peptide 250 µg/ml; pepsin 1 µg/ml in 0.1 M HCl, pH 1.0; sampled at t = 0 and 24 h; RP-HPLC. The protocol: (§1) Synthetic highly immunogenic peptides derived from α2-gliadin ([…]; 33-mer) or γ-gliadin ([…]; 26-mer) were synthesized at a purity of 95% (21st Century Biochemicals, Marlboro, MA), dissolved in deionized water to 10 mg/ml. The peptides (final concentration 250 µg/ml) were incubated with trypsin or chymotrypsin (1 µg/ml in 50 mM ammonium bicarbonate, pH 8.0), or pepsin (1 µg/ml in 0.1 M HCl, pH 1.0) or strain WSA-8 (R. aeria) in saliva ion buffer (OD620 1.2, pH 7.0). Degradation of the 33-mer and 26-mer over time was monitored in 100 µl aliquots by RP-HPLC as reported previously.
(§2) The 100 µl sample aliquots were mixed with 900 µl buffer A containing 0.1% (v/v) trifluoroacetic acid (TFA), filtered and analyzed by RP-HPLC using a HPLC Model 715 (Gilson, Middleton, WI) and a C-18 column (TSK-GEL 5 µm, ODS-120T, 4.6×250 mm, TOSOHaas, Montgomeryville, PA). Peptides were eluted using a linear gradient from 0% to 55% buffer B containing 80% (v/v) acetonitrile and 0.1% (v/v) TFA over a 75 min time interval at a flow rate of 1.0 ml/min. The eluate was monitored at 219 and 230 nm and eluting fractions were collected using peak width and peak sensitivity settings of 1.2 and 5, respectively (Unipoint version 3.3, Gilson). […]
(§3) Figure 4 Degradation of the 33-mer by mammalian enzymes and by enzymes associated with R. aeria. […] Degradation of the 33-mer in incubation aliquots was monitored by RP-HPLC. […]

Data set [1] deals with WSA-8 (R. aeria). Briefly: Degradation and fragment analysis of 33-mer and 26-mer in a suspension of WSA-8. The class given is in vitro ADME, Rothia aeria. The following applies: peptide 250 µg/ml; WSA-8 (R. aeria) in saliva ion buffer, OD620 1.2, pH 7.0; sampled at 0, 30, 60, 120 min; RP-HPLC. The protocol: as §1
The 100 µl sample aliquots were mixed with 900 µl buffer A containing 0.1% (v/v) trifluoroacetic acid (TFA), filtered and analyzed by RP-HPLC using a HPLC Model 715 (Gilson, Middleton, WI) and a C-18 column (TSK-GEL 5 µm, ODS-120T, 4.6×250 mm, TOSOHaas, Montgomeryville, PA). […] The eluate was monitored at 219 and 230 nm and eluting fractions were collected using peak width and peak sensitivity settings of 1.2 and 5, respectively (Unipoint version 3.3, Gilson). […]
All dried peaks were dissolved in 25 µl of a solution containing 5% acetonitrile and 0.1% formic acid. […] The raw MS/MS data of the peptide ions in each of the analyzed samples were searched against an in-house generated database containing the sequences of the 33-mer and the 26-mer using SEQUEST software (Bioworks Browser 3.3.1, Thermo-Finnigan). […]

A further data set has as its system chymotrypsin. Briefly: Degradation of 33-mer and 26-mer gliadin peptides by chymotrypsin. Conditions: peptide 250 µg/ml; chymotrypsin 1 µg/ml in 50 mM ammonium bicarbonate, pH 8.0; sampled at t = 0 and 24 h; RP-HPLC. Format: in vitro ADME. As to the method: as §1, §2, §3
For a further data set, the system named is trypsin. The data set can be described thus: Degradation of 33-mer and 26-mer gliadin peptides by trypsin. The following applies: peptide 250 µg/ml; trypsin 1 µg/ml in 50 mM ammonium bicarbonate, pH 8.0; sampled at t = 0 and 24 h; RP-HPLC. The class given is in vitro ADME. As to the method: as §1, §2, §3
The nature of data set [2]: bacterial suspension in saliva ion buffer (OD620 1.2). The following applies: up to 24 h.
Data set [3] in a line: WSA-8 cells (OD620 1.2) in 20 mM Tris solution, pH 2.0. Conditions: Rothia aeria (strain WSA-8), up to 72 h.
Data set [4] deals with WSA-8 (R. aeria). The data set can be described thus: pH activity analysis: Z-YPQ-pNA hydrolysis by WSA-8 cells. The class given is biochemical, Rothia aeria. Conditions: Z-YPQ-pNA 200 µM, WSA-8 cells OD620 1.2, 20 mM Tris, 405 nm, activity not reactivated at neutral pH. As to the method:
Figure 6 Gliadin zymography (6%) of Rothia strains and pH activity analysis. In the zymogram gels 150 µl cells (OD620 5.0) were applied per lane. Lane 1, strain WSA-2B (R. mucilaginosa); lanes 2: strain WSA-8 (R. aeria), lane 3: strain WSA-26 (R. mucilaginosa); lane 4: strain ATCC 25296 (R. mucilaginosa). A, gel developed at pH 7.0; B, gel developed at pH 3.0. C, Z-YPQ-pNA (200 µM) hydrolysis by WSA-8 cells (OD620 1.2) measured in 20 mM Tris solutions ranging in pH from 2.0 to 10.0. Measurements at 405 nm were carried out hourly for the first 6 hours and after 24 h and 72 h.
To determine protease activities under conditions that are representative of the stomach, the zymogram gel with the four Rothia strains was also developed at pH 3.0 (Figure 6B). […] To further investigate the pH range over which strain R. aeria was active, Z-YPQ-pNA substrate hydrolysis was measured in solutions ranging in pH from 2.0 to 10.0. […] Substrate hydrolysis rates decreased in parallel with decreasing pH values from pH 7.0 to pH 4.0. At pH 3.0 substrate cleavage was noted only after 72 h incubation. The slow but noticeable enzyme activity of R. aeria at this pH value is consistent with the gliadin zymogram results presented in Figure 6B.

For the compound `CC(C)C[C@H](NC(=O)[C@@H](N)Cc1ccccc1)C(=O)N[C@@H](CCC(N)=O)C(=O)N1CCC[C@H]1C(=O)N[C@@H](CCC(N)=O)C(=O)N[C@@H](CCC(N)=O)C(=O)N1CCC[C@H]1C(=O)N[C@@H](Cc1ccccc1)C(=O)N1CCC[C@H]1C(=O)N[C@@H](CCC(N)=O)C(=O)N[C@@H](CCC(N)=O)C(=O)N1CCC[C@H]1C(=O)N[C@@H](CCC(N)=O)C(=O)N[C@@H](CCC(N)=O)C(=O)N1CCC[C@H]1C(=O)N[C@@H](Cc1ccc(O)cc1)C(=O)N1CCC[C@H]1C(=O)N[C@@H](CCC(N)=O)C(=O)N[C@@H](CCC(N)=O)C(=O)N1CCC[C@H]1C(=O)N[C@@H](CCC(N)=O)C(=O)N[C@@H](CCC(N)=O)C(=O)N1CCC[C@H]1C(=O)N[C@@H](Cc1ccccc1)C(=O)N1CCC[C@H]1C(=O)N[C@@H](CCC(N)=O)C(=O)O` [26-mer] (H-FLQPQQPFPQQPQQPYPQQPQQPFPQ-OH), in the data set on pepsin, the degradation by pepsin result is given as “resistant to degradation”. For the same compound, in the data set with WSA-8 (R. aeria) [1], the “degradation in a cell suspension of WSA-8 over the 2 h time interval” value was “sensitive to proteolytic degradation”. Further, the degradation by chymotrypsin entry in the data set on chymotrypsin is recorded as “resistant to degradation”. For the same compound, the degradation by trypsin entry in the data set with trypsin was “resistant to degradation”.
As to `CC(C)C[C@H](NC(=O)[C@H](CCC(N)=O)NC(=O)[C@@H](N)CC(C)C)C(=O)N[C@@H](CCC(N)=O)C(=O)N1CCC[C@H]1C(=O)N[C@@H](Cc1ccccc1)C(=O)N1CCC[C@H]1C(=O)N[C@@H](CCC(N)=O)C(=O)N1CCC[C@H]1C(=O)N[C@@H](CCC(N)=O)C(=O)N[C@@H](CC(C)C)C(=O)N1CCC[C@H]1C(=O)N[C@@H](Cc1ccc(O)cc1)C(=O)N1CCC[C@H]1C(=O)N[C@@H](CCC(N)=O)C(=O)N1CCC[C@H]1C(=O)N[C@@H](CCC(N)=O)C(=O)N[C@@H](CC(C)C)C(=O)N1CCC[C@H]1C(=O)N[C@@H](Cc1ccc(O)cc1)C(=O)N1CCC[C@H]1C(=O)N[C@@H](CCC(N)=O)C(=O)N1CCC[C@H]1C(=O)N[C@@H](CCC(N)=O)C(=O)N[C@@H](CC(C)C)C(=O)N1CCC[C@H]1C(=O)N[C@@H](Cc1ccc(O)cc1)C(=O)N1CCC[C@H]1C(=O)N[C@@H](CCC(N)=O)C(=O)N1CCC[C@H]1C(=O)N[C@@H](CCC(N)=O)C(=O)N1CCC[C@H]1C(=O)N[C@@H](Cc1ccccc1)C(=O)O` [33-mer] (H-LQLQPFPQPQLPYPQPQLPYPQPQLPYPQPQPF-OH), the degradation by pepsin result in the data set on pepsin is given as “resistant to degradation”. Further, in the data set on chymotrypsin, the degradation by chymotrypsin entry is “resistant to degradation”. Also, in the data set on trypsin, the degradation by trypsin entry is on record as “resistant to degradation”.
With Cbz-Tyr-Pro-Gln-pNA, the not cleaved result in data set [2] (Bifidobacterium dentium HOT-588 (strain PAN-5)), in data set [2] (Bifidobacterium dentium HOT-588 (strain PAN-8)), in data set [2] (Bifidobacterium dentium HOT-588 (strain PAN-18)), in data set [2] (Bifidobacterium dentium HOT-588 (strain PAN-19)), in data set [2] (Bifidobacterium dentium HOT-588 (strain PAN-23)) and in data set [2] (Bifidobacterium longum HOT-B54 (strain WSAN-14)) was “− after 24 h” in each case. Further, the not cleaved entry in data set [2] (Bifidobacterium longum HOT-B54 (strain WSAN-16)) is “− after 24 h”; in data set [2] (Bifidobacterium longum HOT-B54 (strain WSAN-24)) it was “− after 24 h”; in data set [2] (Staphylococcus epidermidis HOT-601 (strain WSA-10)), “− (inactive) after 24 h”; in data set [2] (Streptococcus pneumoniae HOT-734 (strain PAN-0)), “− after 24 h”; in data set [2] (Veilonella atypica HOT-524 (strain WSAN-25)) it was “− after 24 h”; in data set [3], “no Z-YPQ-pNA hydrolysis could be observed”.
As for “benzyloxycarbonyl-YPQ-paranitroanilide [Z-YPQ-pNA]”, the “substrate hydrolysis at pH 2.0” value in the data set with WSA-8 (R. aeria) [4] is “no Z-YPQ-pNA hydrolysis could be observed”.
